Experimental data: patent USRE47689E1, “Compounds for treating spinal muscular atrophy” (PTC Therapeutics, Inc., priority 2011, dated 2019)
Like-named read-outs stand apart in the source and are kept apart here.

Assays:
[1] = test system: SMN2 minigene (full length SMN2 minigene mRNA containing SMN2 exon 7); experiment: SMN2 minigene mRNA splicing RT-qPCR assay in cultured cells; format: cell-based, human; details: Homo sapiens, HEK293-H, read-out: EC1.5x for production of full length SMN2 mRNA
Procedure, shortened: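 HEK293H cells stably carrying the SMN2-A minigene treated 24 h at 37° C with compound (DMSO, 200× stock), then lysed. Multiplex RT-qPCR (SMN primers 0.4 μM final; 40 cycles) measures full-length exon 7-containing minigene mRNA, normalized to GAPDH and to vehicle; EC1.5x derived and binned by stars.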

[2] = test system: Smn protein; experiment: Smn protein assay in cultured cells (SMN HTRF); format: cell-based, human; details: for EC1.5x (concentration giving 1.5-fold Smn protein increase): read-out: EC1.5x for Smn protein expression
Procedure, shortened: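 Lysates in RIPA with protease inhibitors are incubated overnight at room temperature with HTRF anti-SMN antibodies. EC1.5x is derived from fold increase in ΔF over vehicle.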

[3] = HEK293H cells stably transfected with SMN2-A minigene, 24 hours, 7-point concentration curve, 1.5-fold relative to vehicle-treated cells
[4] = SMA patient fibroblast cells, 48 hours, 7-point concentration data, fold increase relative to vehicle control (SMN HTRF)
[5] = SMA Type 1 patient fibroblast cells (GM03813), 48 hours, 7-point concentration curve, SMN HTRF, concentration producing 1.5 times Smn protein vs DMSO vehicle control

Which results are given for Cc1cn2cc(-c3cc4ccc(N5CCN6C[C@H](O)C[C@H]6C5)cc4oc3=O)nc2c(C)n1 [Compound 758, 3-(6,8-dimethylimidazo[1,2-a]pyrazin-2-yl)-7-[(7R,8aS)-7-hydroxyhexahydropyrrolo[1,2-a]pyrazin-2(1H)-yl]-2H-chromen-2-one]?
EC (1.5-fold) [1, 3]: 0.3 to 1 µM; maximum fold (Fold) increase of Smn protein [2, 4]: * (maximum fold increase of ≤1.2); melting point: 285 to 287 °C

With Cc1cn2cc(-c3cc4ccc(C5=CC(C)(C)NC(C)(C)C5)cc4oc3=O)nc2c(C)n1 [Compound 949, 3-(6,8-dimethylimidazo[1,2-a]pyrazin-2-yl)-7-(2,2,6,6-tetramethyl-1,2,3,6-tetrahydropyridin-4-yl)-2H-chromen-2-one] as the molecule, how does the EC (1.5-fold) [1, 3] read?
Its EC (1.5-fold) is < 0.1 µM.

And the EC1.5x (concentration giving 1.5-fold Smn protein increase) [2, 5]?
Its EC1.5x (concentration giving 1.5-fold Smn protein increase) is < 300 nM.

What about the “maximum fold (Fold) increase of Smn protein” value (“maximum fold (Fold) increase” for short) [2, 4] of the same molecule?
Its value is “***** (fold increase >1.65)”.

What about the melting point of the same molecule?
Its melting point is 188 to 190 °C.

With Cc1cc(F)c2nc(-c3cc4ccc(N[C@@H]5CCNC5)cc4oc3=O)cn2c1 [Compound 583, 3-(8-fluoro-6-methylimidazo[1,2-a]pyridin-2-yl)-7-[(3R)-pyrrolidin-3-ylamino]-2H-chromen-2-one] as the molecule, how does the EC (1.5-fold) [1, 3] read?
The EC (1.5-fold) was 0.3 to 1 µM.

And the “maximum fold (Fold) increase” value [2, 4]?
Its value is “** (fold increase between >1.2 and ≤1.35)”.

And the melting point?
Its melting point is 231 to 238 °C.

For Cc1cn2cc(-c3cc4ccc(OC5CCNCC5)cc4oc3=O)nc2c(C)n1 [Compound 897, 3-(6,8-dimethylimidazo[1,2-a]pyrazin-2-yl)-7-(piperidin-4-yloxy)-2H-chromen-2-one], which EC (1.5-fold) [1, 3] is on record?
Its EC (1.5-fold) is < 0.1 µM.

And the EC1.5x (concentration giving 1.5-fold Smn protein increase) [2, 5]?
The EC1.5x (concentration giving 1.5-fold Smn protein increase) was < 300 nM.

What about the “maximum fold (Fold) increase” value [2, 4] of the same molecule?
The value was “***** (fold increase >1.65)”.

What about the melting point of the same molecule?
The melting point was 172 to 177 °C.

Which EC (1.5-fold) [1, 3] does the source give for Cc1cn2cc(-c3cc4ccc(N5CCN6C[C@H](O)C[C@H]6C5)cc4oc3=O)cc2c(C)n1 [Compound 767, 3-(1,3-dimethylpyrrolo[1,2-a]pyrazin-7-yl)-7-[(7R,8aS)-7-hydroxyhexahydropyrrolo[1,2-a]pyrazin-2(1H)-yl]-2H-chromen-2-one] here?
The EC (1.5-fold) was < 0.1 µM.

And the EC1.5x (concentration giving 1.5-fold Smn protein increase) [2, 5]?
Its EC1.5x (concentration giving 1.5-fold Smn protein increase) is < 300 nM.

And the “maximum fold (Fold) increase” value [2, 4]?
Its value is “***** (fold increase >1.65)”.

What about the melting point of the same molecule?
The melting point was 185 to 188 °C.

For Cc1cn2cc(-c3cc4ccc(N5CCC(NC(C)C)CC5)cc4oc3=O)nc2c(C)n1 [Compound 923, 3-(6,8-dimethylimidazo[1,2-a]pyrazin-2-yl)-7-[4-(propan-2-ylamino)piperidin-1-yl]-2H-chromen-2-one], which EC (1.5-fold) [1, 3] is on record?
Its EC (1.5-fold) is < 0.1 µM.

What about the EC1.5x (concentration giving 1.5-fold Smn protein increase) [2, 5] of the same molecule?
Its EC1.5x (concentration giving 1.5-fold Smn protein increase) is 300 to 1000 nM.

What about the “maximum fold (Fold) increase” value [2, 4] of the same molecule?
Its value is “*** (fold increase between >1.35 and ≤1.5)”.

And the melting point?
The melting point was 216 to 218 °C.

Which results are given for Cc1nn2cc(-c3cc4ccc(N5CCN(C)CC5)cc4oc3=O)nc2s1 [Compound 442, 3-(2-methylimidazo[2,1-b][1,3,4]thiadiazol-6-yl)-7-(4-methylpiperazin-1-yl)-2H-chromen-2-one]?
EC (1.5-fold) [1, 3]: 3 to 30 µM; maximum fold (Fold) increase of Smn protein [2, 4]: ** (fold increase between >1.2 and ≤1.35); melting point: 233 to 236 °C

With Cc1cn2cc(-c3cc4ccc(OCCNCC(C)O)cc4oc3=O)nc2c(C)n1 (stereo not shown) [Compound 961, 3-(6,8-dimethylimidazo[1,2-a]pyrazin-2-yl)-7-{2-[(2-hydroxypropyl)amino]ethoxy}-2H-chromen-2-one] as the molecule, how does the EC (1.5-fold) [1, 3] read?
The EC (1.5-fold) was < 0.1 µM.

What about the EC1.5x (concentration giving 1.5-fold Smn protein increase) [2, 5] of the same molecule?
Its EC1.5x (concentration giving 1.5-fold Smn protein increase) is < 300 nM.

What about the “maximum fold (Fold) increase” value [2, 4] of the same molecule?
The value was “*** (fold increase between >1.35 and ≤1.5)”.

And the melting point?
The melting point was 185 to 188 °C.

Which results are given for Cc1cc(C)c2nc(-c3cc4ccc(N5C[C@@H](C)N[C@@H](C)C5)cc4oc3=O)cn2c1 [Compound 262, 3-(6,8-dimethylimidazo[1,2-a]pyridin-2-yl)-7-[(3R,5S)-3,5-dimethylpiperazin-1-yl]-2H-chromen-2-one]?
EC (1.5-fold) [1, 3]: 0.3 to 1 µM; maximum fold (Fold) increase of Smn protein [2, 4]: ** (fold increase between >1.2 and ≤1.35); melting point: 227 to 237 °C

With Cc1cn2cc(-c3cc4ccc(N5CCC6(CCNC6)C5)cc4oc3=O)nc2c(C)n1 (stereo not shown) [Compound 945, 7-(2,7-diazaspiro[4.4]non-2-yl)-3-(6,8-dimethylimidazo[1,2-a]pyrazin-2-yl)-2H-chromen-2-one] as the molecule, how does the EC (1.5-fold) [1, 3] read?
Its EC (1.5-fold) is < 0.1 µM.

What about the EC1.5x (concentration giving 1.5-fold Smn protein increase) [2, 5] of the same molecule?
Its EC1.5x (concentration giving 1.5-fold Smn protein increase) is < 300 nM.

And the “maximum fold (Fold) increase” value [2, 4]?
Its value is “***** (fold increase >1.65)”.

And the melting point?
Its melting point is 190 to 200 °C.

What does the source list for Cc1nc(-c2cc3ccc(N4CCCN(C)CC4)cc3oc2=O)cn1-c1ccccn1 [Compound 453, 7-(4-methyl-1,4-diazepan-1-yl)-3-[2-methyl-1-(pyridin-2-yl)-1H-imidazol-4-yl]-2H-chromen-2-one]?
EC (1.5-fold) [1, 3]: 3 to 30 µM; maximum fold (Fold) increase of Smn protein [2, 4]: * (maximum fold increase of ≤1.2); melting point: 192 to 196 °C

Which EC (1.5-fold) [1, 3] does the source give for O=c1oc2cc(N3CCNCC3)ccc2cc1-c1ccc(F)c(Cl)c1 [Compound 484, 3-(3-chloro-4-fluorophenyl)-7-(piperazin-1-yl)-2H-chromen-2-one] here?
Its EC (1.5-fold) is 0.3 to 1 µM.

What about the “maximum fold (Fold) increase” value [2, 4] of the same molecule?
Its value is “* (maximum fold increase of ≤1.2)”.

And the melting point?
The melting point was 186 to 188 °C.

For CCN1CCC(F)(c2ccc3cc(-c4cn5cc(C)nc(C)c5n4)c(=O)oc3c2)CC1 [Cpd 958, 3-(6,8-dimethylimidazo[1,2-a]pyrazin-2-yl)-7-(1-ethyl-4-fluoropiperidin-4-yl)-2H-chromen-2-one], which EC (1.5-fold) ([1]; 24 h) is on record?
The EC (1.5-fold) was < 0.1 µM.

And the “maximum fold (Fold) increase” value [2]?
Its value is “***** (key: *: maximum fold increase of ≤1.2; **: fold increase between >1.2 and ≤1.35; ***: fold increase between >1.35 and ≤1.5; ****: fold increase between >1.5 and ≤1.65; *****: fold increase >1.65)”.

And the EC1.5x (concentration giving 1.5-fold Smn protein increase) [2]?
The EC1.5x (concentration giving 1.5-fold Smn protein increase) was < 300 nM.

What about the melting point of the same molecule?
The melting point was 162 to 164 °C.

Which EC (1.5-fold) [1, 3] does the source give for CN1CCN(c2ccc3cc(-c4cn5cc(C#N)ccc5n4)c(=O)oc3c2)CC1 [Compound 208, 2-[7-(4-methylpiperazin-1-yl)-2-oxo-2H-chromen-3-yl]imidazo[1,2-a]pyridine-6-carbonitrile] here?
The EC (1.5-fold) was 1 to 3 µM.

And the “maximum fold (Fold) increase” value [2, 4]?
The value was “* (maximum fold increase of ≤1.2)”.

And the melting point?
The melting point was 291 °C (dec.).

With C[C@H]1CN(c2ccc3cc(-c4cn5cc(F)cnc5n4)c(=O)oc3c2)CCN1 [Compound 492, 3-(6-fluoroimidazo[1,2-a]pyrimidin-2-yl)-7-[(3S)-3-methylpiperazin-1-yl]-2H-chromen-2-one] as the molecule, how does the EC (1.5-fold) [1, 3] read?
Its EC (1.5-fold) is 1 to 3 µM.

What about the “maximum fold (Fold) increase” value [2, 4] of the same molecule?
The value was “* (maximum fold increase of ≤1.2)”.

And the melting point?
The melting point was 230 to 236 °C.

For Cc1ccn2cc(-c3cc4ccc(N[C@H]5CCNC5)cc4oc3=O)nc2c1 [Compound 581, 3-(7-methylimidazo[1,2-a]pyridin-2-yl)-7-[(3S)-pyrrolidin-3-ylamino]-2H-chromen-2-one], which EC (1.5-fold) [1, 3] is on record?
Its EC (1.5-fold) is 0.3 to 1 µM.

What about the “maximum fold (Fold) increase” value [2, 4] of the same molecule?
The value was “* (maximum fold increase of ≤1.2)”.

And the melting point?
The melting point was 243 to 253 °C.

Which EC (1.5-fold) [1, 3] does the source give for Cc1cn2cc(-c3cc4ccc(N5CC[C@H](N(C)C)C5)cc4oc3=O)ccc2n1 [Compound 717, 7-[(3S)-3-(dimethylamino)pyrrolidin-1-yl]-3-(2-methylimidazo[1,2-a]pyridin-6-yl)-2H-chromen-2-one] here?
Its EC (1.5-fold) is 0.3 to 1 µM.

And the “maximum fold (Fold) increase” value [2, 4]?
Its value is “*** (fold increase between >1.35 and ≤1.5)”.

And the melting point?
Its melting point is 230 to 234 °C.

What does the source list for Cc1ccn2cc(-c3cc4ccc(N5CCN[C@@H](C)C5)cc4oc3=O)nc2c1 [Compound 213, 3-(7-methylimidazo[1,2-a]pyridin-2-yl)-7-[(3S)-3-methylpiperazin-1-yl]-2H-chromen-2-one]?
EC (1.5-fold) [1, 3]: 0.1 to 0.3 µM; maximum fold (Fold) increase of Smn protein [2, 4]: *** (fold increase between >1.35 and ≤1.5); melting point: 234 to 244 °C
